Data as given in ChEMBL document CHEMBL1201862, “PubChem BioAssay data set” (2004).
“And” between values parts separate entries of the source, which are not always exact repeats. Equal values may be shown once.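 Method: 48-hour compound exposure of cells in 96-well plates, five concentrations, linear interpolation of endpoints. GI50: concentration for 50% inhibition of growth.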 The source made the active and inactive calls. Rule as the data show it: active = GI50 up to about 1.1 µM and inactive = higher.

Experiments:
Test in all cases: growth of human tumour cells (NCI), 48 h
786-0 = system: 786-0
A549 = system: A549
CCRF-CEM = system: CCRF-CEM
EKVX = system: EKVX
HCT-15 = system: HCT-15
HL-60 = system: HL-60
IGROV-1 = system: IGROV-1
LOX IMVI = system: LOX IMVI
M14 = system: M14
NCI-H460 = system: NCI-H460
OVCAR-8 = system: OVCAR-8
SK-OV-3 = system: SK-OV-3
SNB-75 = system: SNB-75
SR = system: SR
UACC-257 = system: UACC-257
UACC-62 = system: UACC-62
CAKI-1 = system: CAKI-1

SMILES	GI50 (786-0)	GI50 (A549)	GI50 (CCRF-CEM)	GI50 (EKVX)	GI50 (HCT-15)	GI50 (HL-60)	GI50 (IGROV-1)	GI50 (LOX IMVI)	GI50 (M14)	GI50 (NCI-H460)	GI50 (OVCAR-8)	GI50 (SK-OV-3)	GI50 (SNB-75)	GI50 (SR)	GI50 (UACC-257)	GI50 (UACC-62)	GI50 (CAKI-1)
C(=C\c1c2oc(-c3ccccc3)cc(-c3ccccc3)c-2c2ccccc12)/C=C1\c2ccccc2-c2c(-c3ccccc3)cc(-c3ccccc3)[o+]c21.[O-][Cl+3]([O-])([O-])[O-]	> 100 µM (inactive)	> 100 µM (inactive)	> 100 µM (inactive)	> 100 µM (inactive)	> 100 µM	> 100 µM (inactive)	> 100 µM (inactive)	> 100 µM (inactive)	37 µM (inactive)	> 100 µM (inactive)	> 100 µM (inactive)	> 100 µM (inactive)	45.9 µM (inactive)	> 100 µM (inactive)	> 100 µM (inactive)	> 100 µM (inactive)	
COc1cccc2c1C1=CC(=O)CCC1C(C)(C)O2 (stereo not drawn)	> 100 µM (inactive)	> 100 µM (inactive)	56.4 µM (inactive)	> 100 µM (inactive)	> 100 µM	60 µM (inactive)	> 100 µM (inactive)	35.7 µM (inactive)	> 100 µM (inactive)	35.9 µM (inactive)	> 100 µM (inactive)	> 100 µM (inactive)	> 100 µM (inactive)		> 100 µM (inactive)	> 100 µM (inactive)	> 100 µM (inactive)
Cc1cc(C)c(C(=O)C(C)C(c2ccccc2)c2ccc(Cl)cc2)c(C)c1 (stereo not drawn)	> 100 µM (inactive)	> 100 µM (inactive)	46.3 µM (inactive) and 67.5 µM (inactive)	> 100 µM (inactive)	> 100 µM and 51.5 µM		> 100 µM (inactive)		82.8 µM (inactive) and 75.7 µM (inactive)	> 100 µM (inactive)	> 100 µM (inactive)	> 100 µM (inactive)	> 100 µM (inactive)	76.2 µM (inactive) and 64.6 µM (inactive)	44.2 µM (inactive) and 38.5 µM (inactive)	> 100 µM (inactive)	> 100 µM (inactive)
C=C/C=C(\NC(=O)C(Cl)(Cl)Cl)[Si](C)(C)C	> 100 µM (inactive)	> 100 µM (inactive)	> 100 µM (inactive)	> 100 µM (inactive)	> 100 µM	> 100 µM (inactive)	> 100 µM (inactive)	> 100 µM (inactive)	> 100 µM (inactive)	> 100 µM (inactive)	> 100 µM (inactive)	> 100 µM (inactive)	> 100 µM (inactive)	> 100 µM (inactive)	> 100 µM (inactive)	> 100 µM (inactive)	
COc1ccc2nc(NC(=O)C(=O)CC(=O)c3ccc([N+](=O)[O-])cc3)sc2c1	> 100 µM (inactive)	> 100 µM (inactive)	> 100 µM (inactive)	> 100 µM (inactive)			> 100 µM (inactive)		> 100 µM (inactive)	> 100 µM (inactive)	> 100 µM (inactive)	> 100 µM (inactive)	> 100 µM (inactive)		> 100 µM (inactive)	> 100 µM (inactive)	> 100 µM (inactive)
CC(C)C(=O)/C=C/c1ccc(Cl)c(Cl)c1	14.5 µM (inactive)	21 µM (inactive)	4.53 µM (inactive)	23.4 µM (inactive)		15 µM (inactive)	20 µM (inactive)		17.5 µM (inactive)	22.2 µM (inactive)	18.9 µM (inactive)	28.6 µM (inactive)	> 10 µM (inactive)	14.5 µM (inactive)	21.5 µM (inactive)	17.3 µM (inactive)	
CN(CCN1C(=O)c2cc([N+](=O)[O-])cc3cc([N+](=O)[O-])cc(c23)C1=O)CCN1C(=O)c2cc([N+](=O)[O-])cc3cc([N+](=O)[O-])cc(c23)C1=O	0.455 µM (active)	0.887 µM (active)	0.0524 µM (active)	4.26 µM (inactive)	0.482 µM	0.234 µM (active)	0.347 µM (active)	0.248 µM (active)	0.652 µM (active)	0.387 µM (active)	0.267 µM (active)	2.31 µM (inactive)	0.695 µM (active)		1.21 µM (inactive)	0.811 µM (active)	0.322 µM (active)
CCCN(CCC)c1c([N+](=O)[O-])cc(C(=O)N(CCO)CCO)cc1[N+](=O)[O-]	> 100 µM (inactive)	> 100 µM (inactive)	> 100 µM (inactive)	57.4 µM (inactive)	> 100 µM	> 100 µM (inactive)	> 100 µM (inactive)		> 100 µM (inactive)	> 100 µM (inactive)	> 100 µM (inactive)	> 100 µM (inactive)	> 100 µM (inactive)		> 100 µM (inactive)		> 100 µM (inactive)
CC(C)N1CC2CC(CN(C(=O)c3ccc(Cl)cc3)C2)C1	> 100 µM (inactive)	> 100 µM (inactive)	> 100 µM (inactive)	> 100 µM (inactive)	> 100 µM	> 100 µM (inactive)	> 100 µM (inactive)	> 100 µM (inactive)	> 100 µM (inactive)	> 100 µM (inactive)	> 100 µM (inactive)	> 100 µM (inactive)	> 100 µM (inactive)		> 100 µM (inactive)	> 100 µM (inactive)	> 100 µM (inactive)
CN(C)C=C1C(=O)N(C)C(=O)N(C)C1=O	> 100 µM (inactive)	> 100 µM (inactive)	> 100 µM (inactive)	> 100 µM (inactive)	> 100 µM	> 100 µM (inactive)		> 100 µM (inactive)	> 100 µM (inactive)	> 100 µM (inactive)	> 100 µM (inactive)		> 100 µM (inactive)	> 100 µM (inactive)	> 100 µM (inactive)	> 100 µM (inactive)	> 100 µM (inactive)
Cc1ccc(S(=O)(=O)c2ccc(C)cc2[N+](=O)[O-])cc1	> 100 µM (inactive)	> 100 µM (inactive)	> 100 µM (inactive)	> 100 µM (inactive)	> 100 µM	29.3 µM (inactive)	> 100 µM (inactive)	82.8 µM (inactive)	> 100 µM (inactive)	> 100 µM (inactive)		> 100 µM (inactive)	> 100 µM (inactive)	79.4 µM (inactive)	28.8 µM (inactive)	92.3 µM (inactive)	95.9 µM (inactive)
COc1ccc(C/C(=N/O)C(=O)NCCc2cc(Br)c(OCCCN(C)C)c(Br)c2)cc1Br [APLYSAMINE 2]	20 µM (inactive)	20 µM (inactive)		19.6 µM (inactive)		12.3 µM (inactive)		16.2 µM (inactive)	17.7 µM (inactive)	17.3 µM (inactive)	21.9 µM (inactive)		18.9 µM (inactive)		16.1 µM (inactive)		25.6 µM (inactive)
C[N+](C)(C)CC(=O)N/N=C(/C(=O)Nc1ccc(Br)cc1)C1C(=O)NC(=O)NC1=O	> 100 µM (inactive)	> 100 µM (inactive)	> 100 µM (inactive)	> 100 µM (inactive)	> 100 µM	> 100 µM (inactive)	> 100 µM (inactive)	> 100 µM (inactive)	> 100 µM (inactive)	> 100 µM (inactive)		> 100 µM (inactive)	> 100 µM (inactive)	> 100 µM (inactive)	> 100 µM (inactive)	> 100 µM (inactive)	> 100 µM (inactive)
O=C(CC(=O)n1nc(-c2ccccc2)c(/N=N/c2ccc([N+](=O)[O-])cc2)c1-c1ccccc1)Nc1ccc(Cl)cc1	34.8 µM (inactive)	15.9 µM (inactive)	15.6 µM (inactive)	26.7 µM (inactive)		17 µM (inactive)	36.4 µM (inactive)	30.2 µM (inactive)	13.5 µM (inactive)	30.1 µM (inactive)	35.8 µM (inactive)	18.8 µM (inactive)	29 µM (inactive)	22.4 µM (inactive)	34.8 µM (inactive)	2.56 µM (inactive)	20 µM (inactive)
O=c1oc2ccccc2[n+]([O-])c1-c1ccccc1	> 100 µM (inactive)	> 100 µM (inactive)	> 100 µM (inactive)	> 100 µM (inactive)	> 100 µM	> 100 µM (inactive)	> 100 µM (inactive)	> 100 µM (inactive)	> 100 µM (inactive)	> 100 µM (inactive)	> 100 µM (inactive)	> 100 µM (inactive)	49.7 µM (inactive)		> 100 µM (inactive)	> 100 µM (inactive)	> 100 µM (inactive)
NNC(=O)CC(=O)Nc1ccccc1F	> 100 µM (inactive)	> 100 µM (inactive)	> 100 µM (inactive)	> 100 µM (inactive)	> 100 µM	> 100 µM (inactive)	> 100 µM (inactive)	> 100 µM (inactive)	> 100 µM (inactive)	> 100 µM (inactive)	> 100 µM (inactive)	> 100 µM (inactive)	> 100 µM (inactive)		> 100 µM (inactive)	> 100 µM (inactive)	> 100 µM (inactive)
CCOC(=O)c1ccc(/N=C/c2ccc(N(CCC#N)S(=O)(=O)c3ccccc3)cc2C)cc1	> 100 µM (inactive)	47.1 µM (inactive)	36.6 µM (inactive)	52.8 µM (inactive)	6.82 µM	19.4 µM (inactive)	> 100 µM (inactive)	22.8 µM (inactive)	25.4 µM (inactive)		> 100 µM (inactive)	76.9 µM (inactive)	32.4 µM (inactive)		50 µM (inactive)	19.4 µM (inactive)	39.4 µM (inactive)
C=C1C(=O)OC2C1C(OC(=O)/C(=C/C)COC(C)=O)CC1(CO1)C1C(OC(=O)/C(=C/C)CO)C=C(C)C21 (stereo not drawn)	1.66 µM (inactive)	6.9 µM (inactive)	0.333 µM (active)	2 µM (inactive)	1.59 µM	0.446 µM (active)	1.89 µM (inactive)	3.19 µM (inactive)	1.67 µM (inactive)	6.98 µM (inactive)	0.564 µM (active)	17.1 µM (inactive)	2.26 µM (inactive)		2.04 µM (inactive)	1.59 µM (inactive)	0.502 µM (active)
